Measured values published in patent publication US9884851B2, “Heterocycle-bisamide inhibitors of scavenger receptor BI” (THE BROAD INSTITUTE, INC., priority 2012, dated 2018).
pIC50: −log10 of the molar value. Where “and” joins values, the source holds several entries; their conditions need not be identical. Equal values may be shown once. Entries after “also recorded” stand apart in the source; their conditions may differ.

What was measured:
[1] = biological target: T1, murine SR-BI, isoform 1 (Mus musculus, UniProt Q61009); assay: DiI-HDL uptake assay (primary assay); type: cell-based; conditions: for pIC50: ldlA[mSR-BI] cells, 3 hours with compound
T1 construct: expressed in transfected cells; host or cells: ldlA[mSR-BI], Chinese hamster ovary (CHO) cells lacking LDL receptor (Krieger Laboratory)
T1 sequence (Q61009 1-509): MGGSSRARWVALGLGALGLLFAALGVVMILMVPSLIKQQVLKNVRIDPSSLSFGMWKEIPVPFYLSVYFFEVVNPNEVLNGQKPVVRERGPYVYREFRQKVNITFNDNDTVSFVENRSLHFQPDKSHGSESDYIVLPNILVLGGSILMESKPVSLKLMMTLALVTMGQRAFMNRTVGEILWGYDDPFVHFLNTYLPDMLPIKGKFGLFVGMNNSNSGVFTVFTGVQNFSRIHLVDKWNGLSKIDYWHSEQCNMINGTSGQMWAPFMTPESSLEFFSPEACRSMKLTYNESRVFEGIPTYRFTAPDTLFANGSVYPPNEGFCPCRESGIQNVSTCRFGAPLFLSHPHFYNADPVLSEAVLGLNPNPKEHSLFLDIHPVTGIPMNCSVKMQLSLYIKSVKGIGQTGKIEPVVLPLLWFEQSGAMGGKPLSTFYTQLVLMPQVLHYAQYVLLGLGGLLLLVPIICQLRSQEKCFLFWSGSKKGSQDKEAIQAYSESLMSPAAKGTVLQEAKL
Experimental: The following cell lines were used in this study: • ldlA[mSR-BI] is a Chinese hamster ovary (CHO) cell line that overexpresses murine SR-BI, isoform 1 (NP_058021) and was obtained from the (Krieger Laboratory). This cell line was used for the primary assay and several secondary assays. […] Assays DiI-HDL Uptake Assay (Primary Assay AID Nos. 488896, 493194, 540354 588392, 588553, 588548, 588754, 588828, 588833)
ldlA[mSR-BI] cells were plated into 384-well plates at 30 μl per well and incubated overnight. As a measurable surrogate for cholesterol uptake, human HDL particles were treated with the lipophilic fluorescent dye DiI and exposed to ldlA[mSR-BI] cells in lipoprotein-free media (Ham's F12/0.5% fatty acid-free Bovine Serum Albumin (BSA)/25 mM HEPES pH 7.4 plus 10 μg protein/ml DiI-HDL). Cells took up the DiI via SR-BI over 3 hours in the presence of compound. After significant uptake of the DiI, the cells became fluorescent. The level of fluorescence correlates with the amount of DiI uptake and can be measured with a standard plate reader (here a PerkinElmer EnVision plate reader was used). The uptake of lipid (represented by DiI) was inhibited by the positive control compound BLT-1 or with an excess of HDL untreated with DiI. Primary HTS data were analyzed in Genedata Screener Assay Analyzer, and were normalized against DMSO and the positive control (1 μM BLT-1). For the HTS, the average of two replicates was used to rank order activity and to choose compounds for retests. For dose studies, percent (%) activity was determined for each concentration and the concentration response curves (CRCs) were generated with Genedata Condeseo.
To identify novel inhibitors, SR-BI-mediated lipid uptake was measured in an engineered cell line that minimized potential uptake by other mechanisms, including via the LDL receptor (1). ldlA[mSR-BI] cells overexpress murine isoform 1 and selectively take up HDL lipid at similar levels as “has been reported for cultured mouse adrenal cells, perfused organs, and liver, adrenal gland and ovary in vivo” (1). This primary cell-based assay was used in a pilot screen that identified BLTs 1 through 5. The assay was slightly modified from the original protocol of Nieland et al. to increase throughput and to ease automation procedures.
Briefly, the plate reader was switched to a Perkin-Elmer EnVision, several washing steps were eliminated, and the cell number per well was reduced without impacting the robustness of the assay. The automated assay was first tested with a validation set of 2,240 compounds. These compounds were tested in duplicate with in-plate neutral (DMSO) and positive (1 μM BLT-1) controls. Robustness, reproducibility, and variability parameters were analyzed before initiating the full HTS. The HTS was run over the course of several weeks. Data were normalized relative to controls, and plate patterns were corrected using a multiplicative algorithm in Genedata Screener Assay Analyzer. For each compound, the average of the two replicates was determined and used for subsequent analysis.

[2] = biological target: T2, SR-BI (Mus musculus, UniProt Q61009); assay: DiI-HDL uptake assay with washout; type: cell-based, murine; design: expressed in transfected cells; host or cells: ldlA[mSR-BI], Chinese hamster ovary (CHO) cells lacking LDL receptor (Krieger Laboratory); conditions: compound pretreatment, wash, DiI-HDL without compound
T2 sequence (Q61009 1-509): T1 sequence (Q61009 1-509)
Experimental: DiI-HDL Uptake Assay with Washout (SA 5: AID No. 588831)
This is a modification of the primary assay where cells are pretreated with compound but no compound is present during the DiI-HDL treatment period. ldlA[mSR-BI] cells were plated into 384-well plates at 30 μl per well and incubated overnight. Cells were treated with compound for 3 hours, then media were removed and the cells were washed with PBS before fresh lipoprotein-free media (Ham's F12/0.5% fatty acid-free Bovine Serum Albumin [BSA]/25 mM HEPES pH 7.4) was added with 10 μg protein/ml DiI-HDL. Cells took up the DiI via SR-BI over 3 hours in the absence of compound. After significant uptake of the DiI, the cells became fluorescent. The level of fluorescence correlates with the amount of DiI uptake and can be measured with a standard plate reader. The uptake of lipid (represented by DiI) was inhibited by the compound BLT-1.

[3] = biological target: T2, SR-BI; assay: DiI-HDL uptake assay with extended washout; type: cell-based, murine; design: expressed in transfected cells; host or cells: ldlA[mSR-BI], Chinese hamster ovary (CHO) cells lacking LDL receptor (Krieger Laboratory); conditions: 4-hour washout period
Experimental: DiI-HDL Uptake Assay with Extended Washout (SA 5: AID No. 588831)
This is another modification of the primary assay where cells are pretreated with compound but no compound is present during a 4-hour washout period or the subsequent 3-hour DiI-HDL treatment period. […] Cells were treated with compound for 3 hours, then were washed four times with PBS, once with lipoprotein-free media (Ham's F12/0.5% fatty acid-free Bovine Serum Albumin [BSA]/25 mM HEPES pH 7.4), and then returned to the incubator with lipoprotein-free media for 4 hours. Media were then removed and cells were washed with PBS before fresh lipoprotein-free media (Ham's F12/0.5% fatty acid-free Bovine Serum Albumin [BSA]/25 mM HEPES pH 7.4) was added with 10 μg protein/ml DiI-HDL. Cells took up the DiI via SR-BI over 3 hours in the absence of compound. After significant uptake of the DiI, the cells became fluorescent. The level of fluorescence correlates with the amount of DiI uptake and can be measured with a standard plate reader. The uptake of lipid (represented by DiI) was inhibited by the compound BLT-1 or with an excess of HDL untreated with DiI.

For `CCCCCCC1CCCC1=NNC(N)=S` (stereo not shown) [BLT-1, reference compound], the “reduction in signal in primary HTS” value ([1]; 1 μM, positive control) was greater than 2.2 fold, the pIC50 [1] was 7.97 and the “reversibility of inhibition / activity after washout (in words)” value (from here on “reversibility of inhibition / activity”) [2] was “nonreversible covalent modifier of SR-BI”. The pIC50 ([3]; read-out: DiI-HDL uptake IC50 after 4-hour washout period) was 9.22.
For `C[C@H](C(=O)NC1CCCC1)N(C(=O)Cn1nnc(-c2ccc3c(c2)OCO3)n1)C1CCCCC1` [ML279, (R)-2-(2-(5-(Benzo[d][1,3]dioxol-5-yl)-2H-tetrazol-2-yl)-N-cyclohexylacetamido)-N-cyclopentylpropanamide], the selectivity [1] was “greater than 1000”, the “higher potency than ITX-5061” value ([1]; AID No. 588828) was “approximately 15 fold” and the pIC50 [1] was 7.80 and 7.79. For the same compound, the “reversibility of inhibition / activity” value [2] was “reversible binder of SR-BI; also recorded: greatly attenuated; also recorded: reversible inhibitor of HDL uptake; also recorded: showed no inhibition”, the “reversibility of inhibition / activity” value ([2]; listed as compound of Formula (II)) was “reversible inhibitor” and the “activity after extended washout (in words)” value [3] was “greatly attenuated”.
